Structures are written as SMILES. Numbering of substitutions follows the chain as printed.

We go through three compounds from PMC5673308, “Two single-point mutations shift the ligand selectivity of a pheromone receptor between two closely related moth species” (eLife, 2017).

Holding throughout (experiment): two-electrode voltage clamp, Xenopus oocytes
What all share (format): cell-based
Holding throughout (conditions): holding potential −80 mV, pH 7.5, agonist
Background: Two-electrode voltage clamp holds a large cell at a set potential and records current.

In assay [1] the target is T1, HassOr6/HassOrco (Helicoverpa assulta, UniProt R4JLZ7).
T1 construct: gene OR6; full-length Or6, pCS2+ vector, cRNA co-injected with Orco in Xenopus laevis oocytes; with Odorant receptor coreceptor
T1 sequence (R4JLZ7 1-425): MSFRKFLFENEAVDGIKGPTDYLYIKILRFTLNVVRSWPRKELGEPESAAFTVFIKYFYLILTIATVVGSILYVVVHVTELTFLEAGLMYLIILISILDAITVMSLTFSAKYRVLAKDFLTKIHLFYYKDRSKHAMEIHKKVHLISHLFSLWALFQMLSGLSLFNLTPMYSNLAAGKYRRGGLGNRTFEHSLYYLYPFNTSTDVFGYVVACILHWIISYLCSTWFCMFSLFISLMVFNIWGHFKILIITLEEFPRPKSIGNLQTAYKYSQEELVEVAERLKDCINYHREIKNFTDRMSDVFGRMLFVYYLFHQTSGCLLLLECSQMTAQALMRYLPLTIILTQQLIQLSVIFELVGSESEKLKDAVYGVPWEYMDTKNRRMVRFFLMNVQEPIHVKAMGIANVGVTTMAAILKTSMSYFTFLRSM
T1 sequence (A7UGE1 1-473 partner): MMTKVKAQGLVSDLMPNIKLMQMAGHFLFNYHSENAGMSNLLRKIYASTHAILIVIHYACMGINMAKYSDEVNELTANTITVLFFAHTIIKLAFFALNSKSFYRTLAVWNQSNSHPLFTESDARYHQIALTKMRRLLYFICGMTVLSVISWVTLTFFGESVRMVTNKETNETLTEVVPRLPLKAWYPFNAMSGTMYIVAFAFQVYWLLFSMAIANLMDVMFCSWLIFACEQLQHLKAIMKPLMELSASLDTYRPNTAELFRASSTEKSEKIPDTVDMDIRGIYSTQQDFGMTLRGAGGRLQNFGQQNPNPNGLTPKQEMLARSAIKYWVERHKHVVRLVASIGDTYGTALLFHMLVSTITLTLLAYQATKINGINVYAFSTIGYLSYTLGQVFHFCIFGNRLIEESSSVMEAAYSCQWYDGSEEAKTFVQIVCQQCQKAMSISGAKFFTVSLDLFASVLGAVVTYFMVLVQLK

The target of assay [2] is T2, HarmOr14b/HarmOrco (Helicoverpa armigera, UniProt R4JUU3).
T2 construct: gene OR14b; full-length Or14b, pCS2+ vector, cRNA co-injected with Orco in Xenopus laevis oocytes; with Odorant receptor coreceptor
T2 sequence (R4JUU3 1-440): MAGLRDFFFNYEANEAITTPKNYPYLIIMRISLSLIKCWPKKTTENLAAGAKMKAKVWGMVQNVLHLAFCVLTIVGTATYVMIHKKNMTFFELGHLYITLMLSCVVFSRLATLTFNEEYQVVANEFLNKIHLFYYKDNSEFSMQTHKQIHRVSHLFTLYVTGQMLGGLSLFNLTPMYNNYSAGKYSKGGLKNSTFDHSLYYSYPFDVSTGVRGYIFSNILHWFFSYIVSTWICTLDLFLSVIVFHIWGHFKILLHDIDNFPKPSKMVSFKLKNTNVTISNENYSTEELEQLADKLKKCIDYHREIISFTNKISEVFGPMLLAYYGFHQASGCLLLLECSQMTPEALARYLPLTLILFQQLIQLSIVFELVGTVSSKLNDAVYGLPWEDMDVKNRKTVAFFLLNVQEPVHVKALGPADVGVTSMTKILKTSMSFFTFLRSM
T2 sequence (A0A075TD45 1-473 partner): T1 sequence (A7UGE1 1-473 partner) with V55F

The target in assay [3] is T3, HassOr16/HassOrco (Helicoverpa assulta, UniProt C6K7C1).
T3 construct: full-length Or16, pCS2+ vector, cRNA co-injected with Orco in Xenopus laevis oocytes; with Odorant receptor coreceptor
T3 sequence (C6K7C1 1-422): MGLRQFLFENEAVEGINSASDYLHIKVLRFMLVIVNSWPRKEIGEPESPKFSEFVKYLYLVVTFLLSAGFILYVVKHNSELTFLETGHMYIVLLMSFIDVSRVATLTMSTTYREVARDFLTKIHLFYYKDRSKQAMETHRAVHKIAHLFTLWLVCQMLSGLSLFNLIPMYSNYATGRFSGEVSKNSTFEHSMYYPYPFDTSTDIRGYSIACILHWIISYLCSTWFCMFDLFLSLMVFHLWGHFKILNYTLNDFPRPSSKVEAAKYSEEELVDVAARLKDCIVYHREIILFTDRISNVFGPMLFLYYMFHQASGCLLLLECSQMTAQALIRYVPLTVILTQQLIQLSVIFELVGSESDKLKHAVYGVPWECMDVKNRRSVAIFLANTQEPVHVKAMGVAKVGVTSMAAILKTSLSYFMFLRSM
T3 sequence (A7UGE1 1-473 partner): T1 sequence (A7UGE1 1-473 partner)

In the case of `CCCCCC/C=C\CCCCCCCCO` [Z9-16:OH, (Z)−9-hexadecenol], the “inward current at 10^-4 M” value in assay [1] was “HassOr6 is mainly tuned to Z9-16:OH”.

For `CCCCCC/C=C\CCCCCCCC=O` [Z9-16:Ald, (Z)−9-hexadecenal], the “inward current at 10^-4 M” value in assay [2] is “HarmOr14b is specifically tuned to Z9-14:Ald, and also weakly responds to Z9-16:Ald”.

Regarding `CCCC/C=C\CCCCCCCC=O` [Z9-14:Ald, (Z)−9-tetradecenal], the “inward current at 10^-4 M” value in assay [3] is “HassOr16 is specific for Z9-14:Ald”; in assay [2], “HarmOr14b is specifically tuned to Z9-14:Ald”.
